From patent publication US12181409B2, “Cell imaging composition and cellular material imaging method using same” (EWHA UNIVERSITY-INDUSTRY COLLABORATION FOUNDATION, priority 2019, dated 2024)

Legend:
HeLa cells [1] = experiment: Colocalization of Compound 1 with ER-Tracker Red, confocal microscopy; assay type: cell-based; details: 10 μM Compound 1 and 1 μM ER-Tracker Red, 30 minutes
Description: FIGS. 11A to 11C show fluorescence images of mitochondria in a cell by Compound 1 (excitation at 405 nm/emission at 490 nm to 590 nm) (FIG. 11A), ER(endoplasmic reticulum)-tracker Red (excitation at 559 nm/emission at 576 nm to 675 nm) (FIG. 11B), and Compound 1 and ER-tracker Red merged (FIG. 11C), respectively, acquired by confocal microscopy after HeLa cells were incubated with 10 μM Compound 1 and 1 μM ER-tracker Red for 30 min, according to an example of the present disclosure.
Referring to FIGS. 11A to 11C, HeLa cells were incubated with 10 μM Compound 1 and 1 μM ER-Tracker Red for 30 minutes and a fluorescent image of the mitochondria in the cells was obtained by confocal microscopy.

HeLa cells [2] = experiment: Cytotoxicity test (MTT); assay type: cell-based; details: 30 μM Compound 1, 24 hours, MTT 4 hours, untreated sample = 100%
Description: Referring to FIG. 13, HeLa cells were treated with various concentrations of Compound 1 for 24 hours, cultured in a medium containing MTT for 4 hours, and then the viability of the cells depending on the concentration of Compound 1 was checked. When the absorbance of a sample not treated with Compound 1 was set to 100%, it was confirmed that the cells treated with 30 μM Compound 1 survived about 80%.

HSA [3] = molecular target: T1, HSA (Homo sapiens, UniProt P02768); experiment: Fluorescent imaging of various proteins; assay type: biochemical; details: 3 μM Compound 1, various proteins in DMSO, 0.5 hours and 1.5 hours
Description: FIGS. 14D(i) to 14D(vi) show fluorescence imaging of proteins measured after incubating 3 μM Compound 1 with various proteins in DMSO for 0.5 hours and 1.5 hours, respectively (λex=410 nm), according to an example of the present disclosure.
After 3 μM Compound 1 and various types of proteins in DMSO were incubated for 0.5 hours and 1.5 hours, fluorescence intensity profiles and fluorescent images depending on the types of proteins were compared.

[4] = test system: mitochondria in HeLa cells; experiment: Colocalization of Compound 1 with MitoTracker Deep Red, confocal microscopy; assay type: cell-based; details: 10 μM Compound 1 and 50 nM MitoTracker Deep Red, 30 minutes
Description: FIGS. 10A to 10C show fluorescence images of mitochondria in a cell by Compound 1 (excitation at 405 nm/emission at 490 nm to 590 nm) (FIG. 10A), Mitotracker Deep Red (excitation at 635 nm/emission at 655 nm to 755 nm) (FIG. 10B), and Compound 1 and Mitotracker Deep Red merged (FIG. 10C), respectively, acquired by confocal microscopy after HeLa cells were incubated with 10 μM Compound 1 and 50 nM Mitotracker Deep Red for 30 min, according to an example of the present disclosure.
Referring to FIGS. 10A to 10E, HeLa cells were incubated with 10 μM Compound 1 and 50 nM MitoTracker Deep Red for 30 minutes and a fluorescent image of the mitochondria in the cells was obtained by confocal microscopy.

HSA [5] = molecular target: T1, HSA; experiment: Fluorescent imaging of HSA protein at various pH values; assay type: biochemical; details: buffer solutions at pH 7.4, pH 7.5 and pH 8.5
Description: After Compound 1 and HSA protein were incubated in buffer solutions at various pH values, fluorescence intensity profiles and fluorescent images depending on pH were compared.

T1 sequence (P02768 25-609): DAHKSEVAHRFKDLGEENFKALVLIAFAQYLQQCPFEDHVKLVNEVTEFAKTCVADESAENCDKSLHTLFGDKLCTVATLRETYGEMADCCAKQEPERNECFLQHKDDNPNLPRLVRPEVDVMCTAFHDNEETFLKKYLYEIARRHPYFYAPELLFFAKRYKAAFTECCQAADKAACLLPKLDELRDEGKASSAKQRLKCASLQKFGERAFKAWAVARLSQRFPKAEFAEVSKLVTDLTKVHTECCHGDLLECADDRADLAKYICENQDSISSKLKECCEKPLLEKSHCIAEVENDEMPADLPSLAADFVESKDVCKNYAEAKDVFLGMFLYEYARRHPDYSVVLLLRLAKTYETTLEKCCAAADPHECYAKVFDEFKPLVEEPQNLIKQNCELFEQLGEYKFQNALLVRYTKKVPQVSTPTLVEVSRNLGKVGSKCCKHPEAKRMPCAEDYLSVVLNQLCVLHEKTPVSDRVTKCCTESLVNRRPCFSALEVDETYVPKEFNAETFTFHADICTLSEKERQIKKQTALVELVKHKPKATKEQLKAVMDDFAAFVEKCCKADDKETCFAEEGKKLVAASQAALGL

SMILES: O=C(c1ccccc1)c1ccccc1NCc1ccccc1B(O)O [Compound 1]
- Pearson correlation coefficient (HeLa cells [1]): 0.85±0.01
- degree of agreement of fluorescent image (HeLa cells [1]): about 85%
- cell viability (survival) (HeLa cells [2]): about 80%
- fluorescent imaging performance and selectivity among proteins (HSA [3]): fluorescent imaging performance and selectivity specific to HSA
- Pearson correlation coefficient [4]: 0.81±0.02
- degree of agreement of fluorescent image [4]: about 81%
- fluorescent imaging performance for HSA depending on pH (HSA [5]): fluorescent imaging performance specific to HSA protein
